# Reference: patent US20220017512A1 (SHANGHAI ENNOVABIO PHARMACEUTICALS CO., LTD., priority 2018, published 2022)
# pIC50: −log10 of the molar value.
# How the values were obtained:
# Assay type in all cases: biochemical
# [1] = biological target: T1, Recombinant human TRKA (Homo sapiens, UniProt P04629); test: In vitro activity test on TRKA kinase (HTRF KinEASE TK); settings: 14.68 μM ATP, 40 min
# T1 construct: purchased Carna Biosciences
# Summary of the method: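 Reaction: 0.2 ng/μL TRKA, 1 μM biotinylated TK substrate, 14.68 μM ATP, 5 mM MgCl2, 1 mM DTT, 1% DMSO, 40 min at room temperature. Compounds tested at 1 μM to 0.05 nM (10-point, 3-fold, duplicate). HTRF 665/620 ratio converted to % inhibition versus no-compound control; IC50 by 4-parameter fit.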
# [2] = biological target: T2, Recombinant human TRKC (Homo sapiens, UniProt Q16288); test: In vitro activity test on TRKC kinase (HTRF KinEASE TK); settings: 25.64 μM ATP, 40 min
# T2 construct: purchased Carna Biosciences
# T2 sequence (Q16288 32-839): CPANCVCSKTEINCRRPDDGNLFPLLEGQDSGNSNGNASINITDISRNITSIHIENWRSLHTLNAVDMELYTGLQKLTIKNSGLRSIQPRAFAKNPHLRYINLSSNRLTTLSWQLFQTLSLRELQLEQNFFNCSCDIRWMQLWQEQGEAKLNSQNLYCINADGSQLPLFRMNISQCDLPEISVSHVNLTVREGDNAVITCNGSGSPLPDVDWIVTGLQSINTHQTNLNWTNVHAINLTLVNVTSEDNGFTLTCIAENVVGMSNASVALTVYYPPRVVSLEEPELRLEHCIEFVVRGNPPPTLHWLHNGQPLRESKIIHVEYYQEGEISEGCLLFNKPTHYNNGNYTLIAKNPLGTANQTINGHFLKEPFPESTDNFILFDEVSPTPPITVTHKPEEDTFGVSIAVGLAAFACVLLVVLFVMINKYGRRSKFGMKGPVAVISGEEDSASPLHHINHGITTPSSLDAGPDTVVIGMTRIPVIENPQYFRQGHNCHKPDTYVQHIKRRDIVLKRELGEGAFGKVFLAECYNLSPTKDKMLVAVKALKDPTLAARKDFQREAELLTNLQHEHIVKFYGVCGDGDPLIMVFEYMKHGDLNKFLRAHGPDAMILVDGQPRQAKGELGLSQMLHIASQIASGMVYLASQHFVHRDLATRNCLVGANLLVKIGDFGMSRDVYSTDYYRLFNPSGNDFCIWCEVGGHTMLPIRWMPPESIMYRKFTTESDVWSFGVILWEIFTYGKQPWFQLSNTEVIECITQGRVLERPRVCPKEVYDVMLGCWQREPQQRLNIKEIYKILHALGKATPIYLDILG
# Summary of the method: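 Recombinant human TRKC (0.037 ng/μL) with 1 μM biotinylated TK substrate, 25.64 μM ATP, 5 mM MgCl2, 1 mM DTT, 40 min at room temperature; compound 1 μM to 0.05 nM, 1% DMSO. HTRF 665/620 ratio after overnight detection; IC50 from 4-parameter fit.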
# [3] = biological target: T3, recombinant human TRKA (G595R) (Homo sapiens, UniProt P04629, G595R); test: In vitro activity test on mutant TRKA (G595R) (HTRF KinEASE TK); settings: 4.5 μM ATP, 30 min
# T3 construct: purchased SignalChem
# T3 sequence (P04629 33-796 G595R): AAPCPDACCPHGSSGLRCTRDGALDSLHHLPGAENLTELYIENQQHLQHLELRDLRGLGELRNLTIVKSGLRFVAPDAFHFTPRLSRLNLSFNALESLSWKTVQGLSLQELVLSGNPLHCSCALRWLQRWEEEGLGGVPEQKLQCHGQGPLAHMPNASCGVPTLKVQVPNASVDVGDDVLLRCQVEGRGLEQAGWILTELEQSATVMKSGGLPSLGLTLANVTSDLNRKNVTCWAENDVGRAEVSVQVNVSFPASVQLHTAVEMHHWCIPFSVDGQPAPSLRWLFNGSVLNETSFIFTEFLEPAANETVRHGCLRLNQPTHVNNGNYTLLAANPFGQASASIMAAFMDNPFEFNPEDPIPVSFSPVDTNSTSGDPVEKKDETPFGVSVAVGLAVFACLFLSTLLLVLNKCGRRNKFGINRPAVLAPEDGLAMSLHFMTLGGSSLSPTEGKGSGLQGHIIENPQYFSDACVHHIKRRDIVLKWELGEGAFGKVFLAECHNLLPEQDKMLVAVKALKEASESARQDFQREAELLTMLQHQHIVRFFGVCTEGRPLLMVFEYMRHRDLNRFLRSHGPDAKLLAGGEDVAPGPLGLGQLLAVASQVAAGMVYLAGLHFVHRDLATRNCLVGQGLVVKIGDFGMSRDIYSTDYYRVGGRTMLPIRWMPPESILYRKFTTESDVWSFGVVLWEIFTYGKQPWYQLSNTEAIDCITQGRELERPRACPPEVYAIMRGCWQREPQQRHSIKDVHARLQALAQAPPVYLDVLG
# Summary of the method: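 HTRF KinEASE TK format: 0.12 ng/μL recombinant TRKA (G595R), 1 μM biotinylated TK substrate, 4.5 μM ATP, 5 mM MgCl2, 1 mM DTT, 1% DMSO, 30 min at room temperature; detection overnight. IC50 from 10-point 4-fold series (1 μM to 0.004 nM, duplicates), 665/620 ratio, 4-parameter fit.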
# [4] = biological target: T4, Recombinant human TRKB (Homo sapiens, UniProt Q16620); test: In vitro activity test on TRKB kinase (HTRF KinEASE TK); settings: 4.77 μM ATP, 50 min
# T4 construct: purchased Carna Biosciences
# T4 sequence (Q16620 32-822): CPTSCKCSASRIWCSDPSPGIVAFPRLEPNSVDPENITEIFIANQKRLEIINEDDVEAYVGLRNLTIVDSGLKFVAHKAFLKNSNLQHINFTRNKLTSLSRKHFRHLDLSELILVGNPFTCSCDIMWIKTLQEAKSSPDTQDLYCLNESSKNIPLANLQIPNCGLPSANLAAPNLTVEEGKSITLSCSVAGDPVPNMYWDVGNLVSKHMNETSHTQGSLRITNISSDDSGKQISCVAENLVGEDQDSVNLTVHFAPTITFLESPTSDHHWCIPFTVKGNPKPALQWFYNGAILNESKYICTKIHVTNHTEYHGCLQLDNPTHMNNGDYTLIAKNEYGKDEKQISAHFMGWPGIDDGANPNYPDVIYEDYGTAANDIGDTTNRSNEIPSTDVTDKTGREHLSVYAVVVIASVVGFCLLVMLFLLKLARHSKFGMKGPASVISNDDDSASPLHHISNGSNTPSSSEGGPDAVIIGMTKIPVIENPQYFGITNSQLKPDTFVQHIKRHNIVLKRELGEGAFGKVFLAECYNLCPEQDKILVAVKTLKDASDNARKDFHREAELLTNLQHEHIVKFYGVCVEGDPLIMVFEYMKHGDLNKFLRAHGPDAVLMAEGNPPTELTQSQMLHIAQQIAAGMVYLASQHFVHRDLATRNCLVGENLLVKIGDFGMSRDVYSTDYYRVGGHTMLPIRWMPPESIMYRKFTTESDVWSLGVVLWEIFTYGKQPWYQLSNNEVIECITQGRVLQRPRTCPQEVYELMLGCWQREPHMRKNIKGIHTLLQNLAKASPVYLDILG
# Summary of the method: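 Recombinant human TRKB (0.037 ng/μL) phosphorylated 1 μM biotinylated TK substrate at 4.77 μM ATP, 5 mM MgCl2, 1% DMSO, 50 min at room temperature; compounds 1 μM–0.05 nM. HTRF KinEASE detection overnight; 665/620 ratio converted to inhibition and IC50 from 4-parameter fit.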
# [5] = biological target: T5, recombinant human TRKA (G667C) (Homo sapiens, UniProt P04629, G667C); test: In vitro activity test on mutant TRKA (G667C) (HTRF KinEASE TK); settings: 5.5 μM ATP, 30 min
# T5 construct: purchased SignalChem
# T5 sequence (P04629 33-796 G667C): as the sequence (P04629 33-796 G595R) above, with R563G, G635C counted along it
# Summary of the method: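 HTRF KinEASE TK format with recombinant human TRKA G667C (0.026 ng/μL), 1 μM biotinylated TK substrate, 5.5 […] ATP, 5 mM MgCl2, 1 mM DTT, 1% DMSO; 30 min at room temperature. Detection overnight; 665/620 ratio gives % inhibition, IC50 from 4-parameter fit over 10 doses (1 μM–0.004 nM).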
# T1 sequence (P04629 33-796): as the sequence (P04629 33-796 G595R) above, with R563G counted along it
SMILES,pIC50 [1],pIC50 [2],pIC50 [3],pIC50 [4],pIC50 [5]
"Fc1ccc(F)c([C@H]2C[C@H](F)CN2c2ccc3ncc(F)c(-c4noc(C5CCNCC5)n4)c3n2)c1 [Example 73, 3-(6-((2R,4S)-2-(2,5-difluorophenyl)-4-fluoropyrrolidin-1-yl)-3-fluoro-1,5-naphthyridin-4-yl)-5-(piperidin-4-yl)-1,2,4-oxadiazole]",> 9.00,> 8.00,> 8.00,> 8.00,> 8.00
"NC(=O)CN1CCC(n2cc(-c3c(F)cnc4ccc(N5C[C@@H](F)C[C@@H]5c5cc(F)ccc5F)nc34)cn2)CC1 [Example 74, 2-(4-(4-(6-((2R,4S)-2-(2,5-difluorophenyl)-4-fluoropyrrolidin-1-yl)-3-fluoro-1,5-naphthyridin-4-yl)-1H-pyrazol-1-yl)piperidin-1-yl)acetamide]",> 9.00,> 9.00,> 8.00,> 9.00,> 8.00
"O[C@H]1CCN(c2ccc(-c3ncnc4ccc(N5C[C@@H](F)C[C@@H]5c5cc(F)ccc5F)nc34)cn2)C1 [Example 75, (S)-1-(5-(6-((2R,4S)-2-(2,5-difluorophenyl)-4-fluoropyrrolidin-1-yl)pyrido[3,2-d]pyrimidin-4-yl)pyridin-2-yl)pyrrolidin-3-ol]",> 9.00,> 9.00,> 9.00,> 9.00,> 8.00
"O[C@H]1CCN(c2nc(-c3c(F)cnc4ccc(N5C[C@@H](F)C[C@@H]5c5cc(F)ccc5F)nc34)no2)C1 [Example 77, (S)-1-(3-(6-((2R,4S)-2-(2,5-difluorophenyl)-4-fluoropyrrolidin-1-yl)-3-fluoro-1,5-naphthyridin-4-yl)-1,2,4-oxadiazol-5-yl)pyrrolidin-3-ol]",> 9.00,> 8.00,> 9.00,> 8.00,> 7.30
"Fc1ccc(F)c([C@H]2C[C@H](F)CN2c2ccc3ncnc(-n4cc(C5CCNCC5)cn4)c3n2)c1 [Example 78, 6-((2R,4S)-2-(2,5-difluorophenyl)-4-fluoropyrrolidin-1-yl)-4-(4-(piperidin-4-yl)-1H-pyrazol-1-yl)pyrido[3,2-d]pyrimidine]",> 9.00,> 9.00,> 9.00,> 9.00,> 8.00
"O[C@H]1CCN(C(=S)Nc2ccnc3ccc(N4C[C@@H](F)C[C@@H]4c4cc(F)ccc4F)nc23)C1 [Example 79, (S)-N-(6-((2R,4S)-2-(2,5-difluorophenyl)-4-fluoropyrrolidin-1-yl)-1,5-naphthyridin-4-yl)-3-hydroxypyrrolidine-1-methylthioamide]",> 9.00,> 9.00,> 9.00,> 9.00,> 8.00
"O[C@@H]1CN=C(Nc2ccnc3ccc(N4C[C@@H](F)C[C@@H]4c4cc(F)ccc4F)nc23)OC1 [Example 98, (R)-2-((6-((2R,4S)-2-(2,5-difluorophenyl)-4-fluoropyrrolidin-1-yl)-1,5-naphthyridin-4-yl)amino)-5,6-dihydro-4H-1,3-oxazin-5-ol]",> 9.00,> 9.00,> 9.00,> 9.00,> 9.00
"O[C@H]1CN=C(Nc2ccnc3ccc(N4C[C@@H](F)C[C@@H]4c4cc(F)ccc4F)nc23)OC1 [Example 99, (S)-2-((6-((2R,4S)-2-(2,5-difluorophenyl)-4-fluoropyrrolidin-1-yl)-1,5-naphthyridin-4-yl)amino)-5,6-dihydro-4H-1,3-oxazin-5-ol]",> 9.00,> 8.00,> 9.00,> 9.00,> 9.00
